Reference: patent publication US20250108088A1, “REGENERATIVE PEPTIDES AND METHODS FOR USE THEREOF” (priority 2023, published 2025)

Experiments:
Assay type in all cases: cell-based
[1] = test system: Normal human dermal fibroblasts (HNDF); assay: Myofibroblast transition assay (MFT), aSMA immunofluorescence; conditions: N = 3; for Myofibroblast transition (MFT), aSMA/cell, % change relative to control: TGF-Beta induced HNDF, control of no peptide
Summary of the method: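 HNDFs serum-starved (1% FBS) 4 h, then stimulated with 20 ng/ml TGF-beta plus peptide at various concentrations for 5 days. Fixed cells immunostained for aSMA with DAPI counterstain, imaged by cytometer; aSMA/DAPI ratio gives aSMA per cell, normalized to no-peptide control.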

[2] = test system: Staphylococcus aureus USA300 (NRS384), ST80, JE2, MRSA col; assay: Diffusion agar plate method, zone of inhibition; conditions: 62.5 μg/ml to 1000 μg/ml; FIG. 5
Procedure: (§1) Cell culture: Cultures of each bacterial strain were prepared by inoculating on Muller Hinton Agar (MHA) medium. After overnight incubation at 37° C., the density of the bacterial cells was compared to the McFarland turbidity standard (0.5).
(§2) Plates were swabbed with McFarland 0.5 inoculum of each test bacteria. […] serial dilutions of the peptides were prepared and 20 μl of compound were dropped onto the MHA. Antibiotic disc served as a positive control and vehicle alone served as the negative control. Plates were incubated for 16-18 hours and assessed for antibacterial activity. Zones of inhibition were measured for each TA dilution and compared with the controls.

[3] = test system: Pseudomonas aeruginosa ATCC 27853; assay: Diffusion agar plate method, zone of inhibition; conditions: 62.5 μg/ml to 1000 μg/ml; FIG. 5
Procedure: as §1, §2

[4] = test system: Acinetobacter baumannii ATCC 196062; assay: Diffusion agar plate method, zone of inhibition; conditions: 62.5 μg/ml to 1000 μg/ml; FIG. 5, FIG. 10
Procedure: as §1, §2

[5] = test system: Klebsiella pneumoniae ATCC 10031; assay: Minimum bactericidal concentration (MBC); conditions: agar plates; FIG. 9
Procedure: (§3) The minimum bactericidal concentration (MBC) test determines the lowest concentration at which an antimicrobial agent will kill a particular microorganism. The MBC is determined using a series of steps, undertaken after a Minimum Inhibitory Concentration (MIC) test has been completed. o determine the MBC, the dilution representing the MIC and at least two of the more concentrated test product dilutions are plated and enumerated to determine viable CFU/ml. The […] of the peptides was determined as the lowest concentration in which colony forming units (CFU) values were <5 colonies/10 μl of culture.

[6] = test system: Acinetobacter baumannii ATCC 196062; assay: Minimum bactericidal concentration (MBC); conditions: agar plates; FIG. 9
Procedure: as §3

[7] = test system: Staphylococcus aureus ST80; assay: Minimum bactericidal concentration (MBC); conditions: agar plates; FIG. 9
Procedure: as §3

[8] = test system: Staphylococcus aureus, Streptococcus pneumoniae, Klebsiella pneumoniae, Pseudomonas aeruginosa, Acinetobacter baumannii; assay: Antimicrobial assays, growth of bacterial strains
Procedure: Infection is another perturbation that causes fibrosis and may delay or inhibit wound healing. To determine if the peptides of the instant disclosure affect the growth of bacteria, and thus may be appropriate as antimicrobial peptides to be used in anti-fibrotic treatments, growth of the following bacterial strains was tested with the exemplary peptides: Staphylococcus aureus: USA300, ST80, JE2, and MRSA col; Streptococcus pneumoniae: DCC1335 and D39; Klebsiella pneumoniae; Pseudomonas aeruginosa; and Acinetobacter baumannii. […] Thus, in some embodiments, the peptides of the instant disclosure may bacterial growth, by a least 20%, at least 30%, at least 40%, at least 50%, at least 60%, at least 70%, or at least 80% relative to the control.
To determine which peptides may be used to inhibit the growth of bacteria in tissue, the minimum inhibitory and bactericidal concentrations of exemplary peptides against both Gram-positive and Gram-negative bacteria were assessed. […]
The antimicrobial effects of the exemplary peptides were assessed in the following bacterial strains: Staphylococcus aureus: USA300, ST80, JE2, and MRSA col; Streptococcus pneumoniae: DCC1335 and D39; Klebsiella pneumoniae ATCC 10031; Pseudomonas aeruginosa ATCC 27853; and Acinetobacter baumannii ATCC 196062. […]

[9] = test system: interleukin-8 (IL-8) production in human fibroblasts; assay: Fibroblast inflammation assay (LPS-induced IL-8, ELISA); conditions: N = 3, 5 μg/mL LPS, 24 hours
Procedure: Inflammation in fibroblasts leads to the production of the chemokine interleukin-8 (IL-8), which stimulates fibroblast to myofibroblast transition (MFT) thereby enhancing scar formation. To determine if the peptides of the instant disclosure affect fibroblast response to inflammation and fibroblast IL-8 production, the following assays were performed.
Human fibroblasts were grown as described above. HNDFs were plated in 96 well plates at a concentration of 1×10^4 cells/well and allowed to incubate overnight. The next day cells were dosed with 5 μg/mL of LPS with and without the peptides. The negative control contained only media and vehicle, while the positive control was dosed with lipopolysaccharides (LPS) and dexamethasone (50 μg/ml). After 24 hours, the media was removed to measure IL6 and IL8 cytokine levels using ELISA. A standard curve was plotted in excel. All data were blank subtracted and then fit onto the curve to calculate cytokine concentrations.

[10] = test system: Staphylococcus aureus strains, including the MRSA col strain; assay: Broth microdilution method (MIC50/MIC90)
Procedure: as §1
(§4) Ten-fold serial dilution of the peptide along with controls were prepared in Mueller Hinton Broth (MHB) media in a total volume of 50 μl in 96 well plates. Additionally, 50 μl of the diluted standard inoculum (1:150 in MHB media) were added to each of the well plates. The plates were read at OD600 nm. MIC50 and MIC90 curves were calculated from the plate readout. Each sample was run in duplicate.

[11] = test system: Klebsiella pneumoniae ATCC 10031; assay: Broth microdilution method (MIC50/MIC90)
Procedure: as §1, §4

[12] = test system: Pseudomonas aeruginosa ATCC 27853; assay: Broth microdilution method (MIC50/MIC90)
Procedure: as §1, §4

[13] = test system: Acinetobacter baumannii ATCC 196062; assay: Broth microdilution method (MIC50/MIC90)
Procedure: as §1, §4

FAYCRSKGLRKRLRKFRNK [MBb32]
Myofibroblast transition (MFT), aSMA/cell, % change relative to control ([1]; 100 ng/ml peptide): −0.2592% | Myofibroblast transition (MFT), aSMA/cell, % change relative to control ([1]; 1000 ng/ml peptide): −0.3087% | MFT, Representative value from experiments (% change relative to control) ([1]; most effective significant concentration of 10, 100, 1000 ng/ml): −0.3087 p = (0.039) % | agar zone of inhibition, inhibiting bacterial growth [2]: effective | agar zone of inhibition, inhibiting bacterial growth [3]: effective | agar zone of inhibition, inhibiting bacterial growth [4]: effective | minimum bactericidal concentration (MBC), bactericidal effect [5]: bactericidal effect | minimum bactericidal concentration (MBC), bactericidal effect [6]: bactericidal effect | minimum bactericidal concentration (MBC), bactericidal effect [7]: bactericidal effect | inhibition of bacterial growth among those peptides tested [8]: strongest effect | Fibroblast induced chemokine production (IL-8) induced by LPS (% change relative to control) ([9]; 100 ug/ml peptide): 4% (p = .054) | Fibroblast induced chemokine production (IL-8) induced by LPS (% change relative to control) ([9]; 1000 ug/ml peptide): 29% (p = 0.035) | MIC50, growth inhibition of bacteria in broth [10]: low MIC50 | MIC50, growth inhibition of bacteria in broth [11]: low MIC50 | MIC50, growth inhibition of bacteria in broth [12]: low MIC50 | MIC50, growth inhibition of bacteria in broth [13]: lowest MIC50
